pIC50: −log10 of the molar value.
Tests used:
human FN3K [1] = target: T1, human FN3K (Homo sapiens, UniProt Q9H479); test: Ability of human FN3K cytoplasmic fraction to phosphorylate FTY720 and sphingosine (Example 12); assay type: biochemical; details: 10 μM substrate, 5 mM ATP, approximately 91 μg cytoplasmic fraction, 37° C., 3 hours
T1 construct: expressed in transfected cells; host or cells: HEK293, transient, hFN3K/pcDNA3.2-DEST; cytoplasmic fraction (lysate supernatant) used
T1 sequence (Q9H479 1-309): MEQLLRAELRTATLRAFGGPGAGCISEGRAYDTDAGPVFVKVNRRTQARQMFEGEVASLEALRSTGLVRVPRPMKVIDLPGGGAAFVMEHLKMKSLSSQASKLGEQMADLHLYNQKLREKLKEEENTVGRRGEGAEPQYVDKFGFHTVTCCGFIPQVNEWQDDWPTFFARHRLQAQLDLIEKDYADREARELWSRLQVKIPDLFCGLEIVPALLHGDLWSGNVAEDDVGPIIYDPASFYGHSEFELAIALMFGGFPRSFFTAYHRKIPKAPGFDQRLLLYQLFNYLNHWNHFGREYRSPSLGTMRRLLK
Experimental: (§1) Eighteen 1.5-mL polypropylene tubes were prepared. Components were added to each tube to the following final concentrations, with the total amount set at 250 μL, followed by leaving the obtained solution at rest on ice (100 mM HEPES (pH 7.4), 5 mM magnesium chloride, 5 mM ATP, 1 mM dithiothreitol, 0.5% CHAPS, 10 μM FTY720 or sphingosine, each cytoplasmic fraction obtained in Example 10 in an amount of approximately 91 μg). The obtained mixture was incubated in a hot-water bath at 37° C. for 3 hours, and was then transferred onto ice. 0.5 mL methanol was added to each tube, and mixed with the reaction product. Thereafter, the mixture was preserved at −20° C. until LC/MS/MS measurement was carried out.
(§2) The amount of FTY720 phosphoric ester or SIP generated was analyzed using the following LC/MS/MS system.
(§3) LC system: • HPLC apparatus name: Agilent 1100 series (Agilent Technologies) • Autosampler name: HTC PAL (CTC Analytics)
(§4) MS/MS system: • Apparatus name: API4000 (Applied Biosystems/MDS Sciex)

human FN3KRP [2] = target: T2, human FN3KRP (Homo sapiens, UniProt Q9HA64); test: Ability of human FN3KRP cytoplasmic fraction to phosphorylate FTY720 and sphingosine (Example 12); assay type: biochemical; parameters: expressed in transfected cells; host or cells: HEK293, transient, hFN3KRP/pcDNA3.1(+)neo; cytoplasmic fraction (lysate supernatant) used; details: 10 μM substrate, 5 mM ATP, approximately 91 μg cytoplasmic fraction, 37° C., 3 hours
T2 sequence (Q9HA64 1-309): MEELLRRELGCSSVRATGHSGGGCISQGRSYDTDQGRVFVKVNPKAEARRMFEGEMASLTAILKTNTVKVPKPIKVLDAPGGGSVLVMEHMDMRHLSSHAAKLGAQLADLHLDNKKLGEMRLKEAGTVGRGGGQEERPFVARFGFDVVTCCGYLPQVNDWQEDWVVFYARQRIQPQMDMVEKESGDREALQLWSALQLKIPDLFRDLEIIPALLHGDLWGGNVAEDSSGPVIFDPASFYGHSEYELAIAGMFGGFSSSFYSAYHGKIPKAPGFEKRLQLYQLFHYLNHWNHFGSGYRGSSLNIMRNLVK
Experimental: as §1, §2, §3, §4

human FN3K [3] = target: T1, human FN3K; test: DMF inhibition of compound 1 phosphorylating activity, hydrophobic interaction column active fraction (Example 6); assay type: biochemical; details: active fraction of the hydrophobic interaction column (second purification stage, Example 4)
Experimental: (§5) When 1-deoxy-1-morpholinofructose (DMF; Sigma) was added to the reaction solution, it was added thereto to a final concentration of 1 mM. […] Thereafter, 150 μL of methanol was added to the reaction solution, and the mixture was then filtrated through a filter with a pore diameter of 0.45 μm, so as to terminate the reaction and remove the protein. 10 μL of the filtrate was subjected to a reverse phase chromatography column (TSK-gel ODS-100S; 4.6 mm (diameter)×150 mm (length); Tosoh Corp). Isocratic elution was carried out using 40% acetonitrile comprising 0.1% trifluoroacetic acid at a flow rate of 1 mL/min at a column temperature of 40° C. […] The amount of phosphoric ester of compound 1 generated was measured based on a peak area.

human FN3KRP [4] = test: Compound 1 phosphorylating activity of human erythrocyte fractions in presence and absence of 1 mM DMF (FN3KRP purification, Example 6); assay type: biochemical
Experimental: as §5
(§6) For purification, enzyme activity was always measured in the presence and absence of 1 mM DMF, so that the purification was carried out using activity that is not inhibited by DMF as an indicator.
(§7) The ammonium sulfate precipitate obtained in Example 4 was fractionated by each of an anion exchange column (HiPrep Q 16/10 XL, GE Healthcare Biosciences), a dye-binding affinity column (HiTrap Blue HP 1 mL), a cation exchange column (Mono S PC 1.6/5), and a gel filtration column (Superdex 75 PC 3.2/30).

human FN3KRP [5] = target: T2, human FN3KRP; test: as above; assay type: biochemical
Experimental: as §5, §6, §7

human FN3KRP [6] = target: T2, human FN3KRP; test: Phosphorylation of compound 1 and analogs using human FN3KRP expression cytoplasmic fraction (Example 13); assay type: biochemical; parameters: expressed in transfected cells; host or cells: HEK293, transient, hFN3KRP/pcDNA3.1(+)neo; cytoplasmic fraction (lysate supernatant) used; details: 100 μM substrate, 0.328 mg/mL human FN3KRP expression cytoplasmic fraction, 5 mM ATP, 37° C., 3 hours
Experimental: (§8) HEK293 cells were inoculated to three 75-cm^2 culture flasks, and they were then cultured until they became 80% confluent. Using a lipofectamine plus reagent (Invitrogen), gene introduction was carried out without plasmid DNA, with 4 μg of hFN3KRP/pcDNA3.1(+)neo, and with 4 μg of hFN3K/pcDNA3.2-DEST, for each of the three flasks. Thereafter, the cells were cultured for approximately 27 hours. Thereafter, the cells were washed with PBS, and 2.5 mL of a cell lysate (100 mM HEPES (pH 7.4), 80% (v/v) CelLytic-M (Sigma), 1 mM dithiothreitol, a single protease inhibitor cocktail for 50 mL (Complete EDTA-free, Roche)) was then added to the cells. Thereafter, the cells were intensively shaken, until all of them were removed. The thus removed cells and the supernatant were recovered, and they were then ultracentrifuged at 20,000×g at 4° C. for 15 minutes. Thereafter, the supernatant was recovered, and aliquots each of 200 μL were frozen in liquid nitrogen. They were preserved at −80° C. until used. In addition, a portion of the supernatant was subjected to measurement of protein concentration. […]
(§9) The efficiency of phosphorylating each compound was calculated using the peak areas of phosphoric ester and unreacted substrate, as shown in the following formula. […]

rat erythrocytes = test: Phosphorylation of compound 1 and analogs using rat erythrocytes (Example 15); assay type: cell-based, Wistar-Imamichi rats; details: 100 μg/mL substrate, 37° C., 3 hours
Experimental: The efficiency of phosphorylating each compound was calculated using the peak areas of phosphoric ester and unreacted substrate, as shown in the following formula. Phosphorylation efficiency (%)=peak area of phosphoric ester/(peak area of phosphoric ester+peak area of unreacted substrate)×100
Erythrocytes were prepared from Wistar-Imamichi rats (purchased from Institute for Animal Reproduction) in the same manner as in Example 1.
Reaction solution: Rat erythrocytes
Reaction substrate: 100 μg/mL
Reaction condition: 37° C., 3 hours
After completion of the reaction, 1 mL of methanol was added to the reaction solution, and the mixture was then stirred. The mixed solution was centrifuged (16,000×g, 5 minutes, 4° C.). The supernatant was centrifuged again (16,000×g, 10 minutes, 4° C.), and 20 μL of a newly obtained supernatant was then subjected to HPLC, so that analysis was carried out under the conditions described in Example 13. The efficiency of phosphorylating each analog was calculated using the formula as shown in Example 13.

human FN3K [7] = target: T1, human FN3K; test: Phosphorylation of compound 1 and analogs using human FN3K expression cytoplasmic fraction (Example 14); assay type: biochemical; details: 100 μM substrate, 0.3 mg/mL human FN3K expression cytoplasmic fraction, 5 mM ATP, 37° C., 3 hours
Experimental: as §8, with “used.” for “used. In addition, a portion of the supernatant was subjected to measurement of protein concentration.”
as §9
After completion of the reaction, 200 μL of methanol was added to the reaction solution, and the mixture was then stirred. […] The efficiency of phosphorylating each analog was calculated using the formula as shown in Example 13.

For `CCCCCCCCc1ccc(CCC(N)(CO)CO)cc1.Cl` [FTY720, 2-Amino-2-[2-(4-octylphenyl)ethyl]propane-1,3-diol hydrochloride], the “Phosphorylation of substrate (LC/MS/MS)” value (human FN3K [1]) was “slightly phosphorylate” and the “Phosphorylation of substrate (LC/MS/MS)” value (human FN3KRP [2]) was “slightly phosphorylate”.

For `O=C(CN1CCOCC1)[C@@H](O)[C@H](O)[C@H](O)CO` [DMF, 1-deoxy-1-morpholinofructose], the pIC50 (human FN3K [3]) was roughly 6.00, the Remaining activity (human FN3KRP [4]; 1 mM DMF; 1) ammonium sulfate precipitation) was 89% and the Remaining activity (human FN3KRP [4]; 1 mM DMF, soluble fraction) was 81%. For the same molecule, the “Inhibition of compound 1 phosphorylating activity by DMF” value (human FN3KRP [4]; soluble fraction and re-solubilized ammonium sulfate precipitate) was “hardly observed”, the remaining activity at 1000 µM (human FN3KRP [5]; 1 mM DMF; 2) anion exchange column) was 98% and the remaining activity at 1000 µM (human FN3KRP [5]; 1 mM DMF; 3) dye-binding affinity column) was 110%. The remaining activity at 1000 µM (human FN3KRP [5]; 1 mM DMF; 4) cation exchange column) was 98% and the “Inhibition of enzyme activity by DMF” value (human FN3KRP [5]; enzyme activity after the second purification step) was “not inhibited”.

For `CCCCCCCCCCCCC/C=C/[C@@H](O)[C@@H](N)CO` [sphingosine], the “Phosphorylation of substrate (LC/MS/MS)” value (human FN3K [1]) was “do not have ability to phosphorylate” and the “Phosphorylation of substrate (LC/MS/MS)” value (human FN3KRP [2]) was “do not have ability to phosphorylate”.

In the case of `NC(CO)(CO)CCCc1ccc(Sc2cccc(OCc3ccccc3)c2)cc1Cl` [ROX-2127, 2-amino-2-[4-(3-benzyloxyphenylthio)-2-chlorophenyl]propyl-1,3-propanediol], the Phosphorylation efficiency (human FN3KRP [6]) was 37.5%, the Phosphorylation efficiency (rat erythrocytes) was 31.7% and the Phosphorylation efficiency (human FN3K [7]) was 0.0%.
